Assay results reported in US8940756B2, “Dihydronaphthyridines and related compounds useful as kinase inhibitors for the treatment of proliferative diseases” (Deciphera Pharmaceuticals, Inc., priority 2012, dated 2015).

What was measured:
[1] = molecular target: T1, c-KIT kinase (Seq ID no. 1) (Homo sapiens, UniProt P10721); experiment: c-KIT Kinase Assay (pyruvate kinase/lactate dehydrogenase coupled); assay type: biochemical; settings: enzymatic assay, ATP 200 μM; read-out: KIT (wt)
T1 construct: GST (N); TEV cleavage site (N); purchased deCODE Biostructures
Experimental: In this assay, the oxidation of NADH (measured by decrease in absorbance at 340 nm) was continuously monitored spectrophotometrically. […] The absorption at 340 nm was monitored continuously for 2 hours at 30° C. on Synergy 2 (BioTeK). The reaction rate was calculated using the 0 to 1 h time frame. Percent inhibition was obtained by comparison of reaction rate with that of a control (i.e. with no test compound). IC50 values were calculated from a series of percent inhibition values determined at a range of inhibitor concentrations using software routines as implemented in the GraphPad Prism software package. The protein construct was prepared by deCODE Biostructures using procedures known in the art. The construct contains […] of cKit, an N-terminal tag, a GST-fusion sequence and a TEV cleavage site.

[2] = molecular target: T2, c-KIT D816V kinase (Seq ID no. 4) (Homo sapiens, UniProt P10721, D816V); experiment: c-KIT D816V kinase Assay; assay type: biochemical; settings: enzymatic assay, ATP 200 uM
T2 construct: D816V c-KIT (residues T544-V976 with N-terminal GST fusion, 16 nM); purchased deCODE Biostructures
Experimental: (§1) In this assay, the oxidation of NADH (measured by decrease in absorbance at 340 nm) was continuously monitored spectrophotometrically. […] The inhibition reaction was started by mixing serial diluted test compound with the above reaction mixture. The absorption at 340 nm was monitored continuously for 5 hours at 30° C. on Synergy 2 plate reader (BioTech).
The protein construct was prepared by deCODE Biostructures using procedures known in the art. The construct contains residues T544-V976 of cKit, an N-terminal tag, a GST-fusion sequence and a TEV cleavage site. This construct is identical to Seq ID no. 1 except for the D816V mutation.

[3] = molecular target: T3, c-KIT T670I kinase (Seq ID no. 6) (Homo sapiens, UniProt P10721, T670I); experiment: c-KIT T670I Kinase Assay; assay type: biochemical; settings: enzymatic assay, ATP 200 uM
T3 construct: GST (N); TEV cleavage site (N); purchased deCODE Biostructures
Experimental: as §1, with “(BioTech). […] The protein construct was prepared by deCODE Biostructures using procedures known in the art. The construct contains […] of cKit, an N-terminal tag, a GST-fusion sequence and a TEV cleavage site. This construct is identical to Seq ID no.” for “(BioTech).”

[4] = molecular target: T4, c-KIT D816H kinase (Seq ID no. 3) (Homo sapiens, UniProt P10721, D816H); experiment: c-KIT D816H Kinase Assay; assay type: biochemical; settings: enzymatic assay, ATP 200 μM
T4 construct: GST (N); TEV cleavage site (N); purchased deCODE Biostructures
Experimental: In this assay, the oxidation of NADH (measured by decrease in absorbance at 340 nm) was continuously monitored spectrophotometrically. […] The inhibition reaction was started by mixing serial diluted test compound with the above reaction mixture. The absorption at 340 nm was monitored continuously for 6 hours at 30° C. on Synergy 2 plate reader (BioTech). […] The protein construct was prepared by deCODE Biostructures using procedures known in the art. The construct contains […] of cKit, an N-terminal tag, a GST-fusion sequence and a TEV cleavage site. This construct is identical to Seq ID no. 1 except for the D816H mutation.

[5] = molecular target: Phospho-KIT (Tyr719) in GIST430 cells (Homo sapiens, UniProt P10721); experiment: GIST430 KIT Western Blot; assay type: cell-based; settings: 4 hours, read-out: pKIT suppression by western blot analysi GIST430
Experimental: (§2) GIST48, GIST430, and GIST882 cells were obtained from J. Fletcher (Brigham and Women's Hospital, Boston, Mass.). GIST T1 cells were obtained from B. Rubin (Cleveland Clinic, Cleveland, Ohio) and Professor Takahiro Taguchi (Kochi Medical School, Nankoku, Kochi, Japan). […] GIST430 cells were grown in Ham's F10 medium supplemented with 15% characterized fetal bovine serum (Invitrogen, Carlsbad, Calif.), 30 mg/L bovine pituitary extract (BD Biosciences, San Jose, Calif.), 0.5% Mito+ serum extender (BD Biosciences, San Jose, Calif.), 1 unit/mL penicillin G, 1 μg/ml streptomycin, and 0.29 mg/mL L-glutamine at 37° C., 5% CO2, 95% humidity. GIST T1 cells were grown in DMEM medium supplemented with 10% characterized fetal bovine serum (Invitrogen, Carlsbad, Calif.), 1 unit/mL penicillin G, 1 ng/ml streptomycin, and 0.29 mg/mL L-glutamine at 37° C., 5% CO2, and 95% humidity. Cells were allowed to expand until reaching 70-95% confluence at which point they were subcultured or harvested for assay use.
(§3) One hundred fifty thousand cells were added per well in a 24-well tissue-culture treated plate. Cells were then incubated overnight at 37° C., 5% CO2, 95% humidity. Medium was aspirated, cells were washed with PBS, and serum-free Ham's F10 medium was added. A serial dilution of test compound was added to plates containing cells and plates were incubated for 4 hours at 37° C., 5% CO2, 95% humidity. Cells were washed with PBS, then lysed. Cell lysates were separated by SDS-PAGE and transferred to PVDF. Phospho-KIT (Tyr719) was detected using an antibody from Cell Signaling Technology (Beverly, Mass.), ECL Plus detection reagent (GE Healthcare, Piscataway, N.J.) and a Molecular Devices Storm 840 phosphorimager in fluorescence mode. Blots were stripped and probed for total KIT using an antibody from Santa Cruz Biotech (Santa Cruz, Calif.). IC50 values were calculated using Prism software (Graphpad, San Diego, Calif.).

[6] = molecular target: Phospho-KIT (Tyr719) in GIST48 cells (Homo sapiens, UniProt P10721); experiment: GIST48 KIT Western Blot; assay type: cell-based; settings: 4 hours, read-out: pKIT suppression by western blot analysi GIST48
Experimental: as §2
as §3, with “Two” for “One”, “RPMI1640” for “Ham's F10”

T3 sequence (P10721 544-976 T670I): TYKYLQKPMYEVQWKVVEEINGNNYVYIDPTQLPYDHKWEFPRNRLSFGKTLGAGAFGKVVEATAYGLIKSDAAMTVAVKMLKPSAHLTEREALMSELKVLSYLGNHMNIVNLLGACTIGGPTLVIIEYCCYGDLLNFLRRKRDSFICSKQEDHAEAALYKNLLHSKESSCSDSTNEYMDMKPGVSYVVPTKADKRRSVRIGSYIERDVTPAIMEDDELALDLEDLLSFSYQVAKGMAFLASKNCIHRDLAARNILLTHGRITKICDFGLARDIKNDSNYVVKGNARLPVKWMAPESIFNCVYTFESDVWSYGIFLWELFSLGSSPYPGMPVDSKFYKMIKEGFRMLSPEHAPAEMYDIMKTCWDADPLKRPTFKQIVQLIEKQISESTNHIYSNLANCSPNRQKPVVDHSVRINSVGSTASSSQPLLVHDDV
T2 sequence (P10721 544-976 D816V): as the sequence (P10721 544-976 T670I) above, with I127T, D273V counted along it
T4 sequence (P10721 544-976 D816H): as the sequence (P10721 544-976 T670I) above, with I127T, D273H counted along it
T1 sequence (P10721 with tags, fused parts or gaps): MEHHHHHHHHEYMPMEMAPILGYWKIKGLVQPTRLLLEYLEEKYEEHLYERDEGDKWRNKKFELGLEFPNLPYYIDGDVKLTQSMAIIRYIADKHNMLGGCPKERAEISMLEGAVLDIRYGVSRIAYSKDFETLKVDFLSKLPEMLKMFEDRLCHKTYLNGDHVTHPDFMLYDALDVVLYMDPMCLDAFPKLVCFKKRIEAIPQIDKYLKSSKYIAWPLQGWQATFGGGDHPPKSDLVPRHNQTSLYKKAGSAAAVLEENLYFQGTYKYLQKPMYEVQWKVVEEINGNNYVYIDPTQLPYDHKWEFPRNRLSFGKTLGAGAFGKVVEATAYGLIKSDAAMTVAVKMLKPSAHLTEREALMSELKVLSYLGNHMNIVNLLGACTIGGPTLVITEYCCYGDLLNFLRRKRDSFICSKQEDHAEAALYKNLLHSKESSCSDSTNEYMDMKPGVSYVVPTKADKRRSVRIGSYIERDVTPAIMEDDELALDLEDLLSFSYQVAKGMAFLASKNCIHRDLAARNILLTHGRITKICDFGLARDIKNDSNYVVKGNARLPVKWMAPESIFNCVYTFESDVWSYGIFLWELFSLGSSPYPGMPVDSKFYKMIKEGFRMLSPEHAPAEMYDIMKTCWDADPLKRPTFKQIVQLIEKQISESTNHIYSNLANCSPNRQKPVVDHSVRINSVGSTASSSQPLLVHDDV
Chain of Phospho-KIT (Tyr719) in GIST48 cells (P10721 whole entry V560D/D820A, form open): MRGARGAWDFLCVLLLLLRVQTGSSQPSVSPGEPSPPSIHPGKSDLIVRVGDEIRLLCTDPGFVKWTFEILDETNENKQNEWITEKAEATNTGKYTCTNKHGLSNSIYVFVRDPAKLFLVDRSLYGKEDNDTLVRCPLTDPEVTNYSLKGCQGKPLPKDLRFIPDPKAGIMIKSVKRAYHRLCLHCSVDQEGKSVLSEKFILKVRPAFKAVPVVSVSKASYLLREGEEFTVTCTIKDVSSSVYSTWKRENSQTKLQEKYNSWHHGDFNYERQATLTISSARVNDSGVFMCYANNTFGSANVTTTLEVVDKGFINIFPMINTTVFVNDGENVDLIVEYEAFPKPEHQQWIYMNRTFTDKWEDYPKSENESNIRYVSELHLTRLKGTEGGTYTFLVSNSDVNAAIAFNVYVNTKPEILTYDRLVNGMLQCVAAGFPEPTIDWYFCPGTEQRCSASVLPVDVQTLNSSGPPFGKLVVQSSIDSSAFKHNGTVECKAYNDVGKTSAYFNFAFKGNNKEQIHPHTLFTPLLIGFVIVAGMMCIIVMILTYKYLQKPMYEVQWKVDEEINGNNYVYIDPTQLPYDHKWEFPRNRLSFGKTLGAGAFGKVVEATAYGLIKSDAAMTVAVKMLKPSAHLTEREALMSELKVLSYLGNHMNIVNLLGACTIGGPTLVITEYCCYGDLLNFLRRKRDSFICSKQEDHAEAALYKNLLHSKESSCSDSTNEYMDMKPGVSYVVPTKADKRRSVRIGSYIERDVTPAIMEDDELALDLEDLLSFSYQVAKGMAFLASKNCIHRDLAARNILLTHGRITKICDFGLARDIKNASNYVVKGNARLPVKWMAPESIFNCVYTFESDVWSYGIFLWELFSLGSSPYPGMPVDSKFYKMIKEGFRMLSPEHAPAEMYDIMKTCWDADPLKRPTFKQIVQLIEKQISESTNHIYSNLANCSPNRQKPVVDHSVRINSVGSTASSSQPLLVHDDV
Chain of Phospho-KIT (Tyr719) in GIST430 cells (P10721 with tags, fused parts or gaps DEL560-576/V654A, form open): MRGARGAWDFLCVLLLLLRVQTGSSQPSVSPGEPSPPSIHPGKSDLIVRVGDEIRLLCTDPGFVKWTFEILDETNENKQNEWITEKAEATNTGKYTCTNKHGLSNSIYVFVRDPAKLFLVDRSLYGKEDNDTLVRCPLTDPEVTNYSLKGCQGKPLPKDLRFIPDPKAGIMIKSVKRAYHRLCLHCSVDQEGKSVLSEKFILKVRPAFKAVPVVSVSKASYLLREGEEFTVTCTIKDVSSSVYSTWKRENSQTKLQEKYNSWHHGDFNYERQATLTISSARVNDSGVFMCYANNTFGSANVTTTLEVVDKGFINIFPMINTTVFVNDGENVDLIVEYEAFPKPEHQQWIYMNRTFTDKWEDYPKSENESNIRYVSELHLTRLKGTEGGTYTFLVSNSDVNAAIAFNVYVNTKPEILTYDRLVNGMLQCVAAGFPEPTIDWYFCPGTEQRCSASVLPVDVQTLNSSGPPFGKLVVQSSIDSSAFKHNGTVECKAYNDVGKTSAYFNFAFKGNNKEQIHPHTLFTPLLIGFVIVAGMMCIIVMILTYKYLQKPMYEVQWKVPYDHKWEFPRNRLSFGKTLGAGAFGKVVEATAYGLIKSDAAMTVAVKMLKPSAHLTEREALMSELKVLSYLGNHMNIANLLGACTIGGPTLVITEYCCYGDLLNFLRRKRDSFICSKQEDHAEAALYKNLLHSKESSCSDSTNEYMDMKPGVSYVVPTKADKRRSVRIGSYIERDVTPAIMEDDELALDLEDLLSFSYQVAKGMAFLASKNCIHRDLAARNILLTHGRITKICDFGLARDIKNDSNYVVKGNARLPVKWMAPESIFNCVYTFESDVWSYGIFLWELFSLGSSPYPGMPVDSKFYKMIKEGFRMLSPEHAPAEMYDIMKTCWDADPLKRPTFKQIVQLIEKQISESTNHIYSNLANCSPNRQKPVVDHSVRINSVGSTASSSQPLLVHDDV

| SMILES | IC50 [1] [nM] | IC50 [2] [nM] | IC50 [3] [nM] | IC50 [4] [nM] | IC50 [5] [nM] | IC50 [6] [nM] |
| --- | --- | --- | --- | --- | --- | --- |
| CCn1c(=O)c(-c2cc(NC(=O)Nc3ccccc3)c(F)cc2Cl)cc2cnc(NCCS(C)(=O)=O)cc21 [Example 48, 1-(4-chloro-5-(1-ethyl-7-(2-(methylsulfonyl)ethylamino)-2-oxo-1,2-dihydro-1,6-naphthyridin-3-yl)-2-fluorophenyl)-3-phenylurea] | 10 to 100 | 100 to 1000 | > 1000 |  |  |  |
| CCn1c(=O)c(-c2cc(NC(=O)Nc3ccccc3)c(F)cc2Cl)cc2cnc(NC3CCN(C)C3)cc21 (stereo not drawn) [Example 49, 1-(4-chloro-5-(1-ethyl-7-(1-methylpyrrolidin-3-ylamino)-2-oxo-1,2-dihydro-1,6-naphthyridin-3-yl)-2-fluorophenyl)-3-phenylurea] | 10 to 100 | 100 to 1000 | 100 to 1000 |  |  |  |
| CCn1c(=O)c(-c2cc(NC(=O)Nc3ccccc3)c(F)cc2Cl)cc2cnc(NC3CCN(C)CC3)cc21 [Example 46, 1-(4-chloro-5-(1-ethyl-7-(1-methylpiperidin-4-ylamino)-2-oxo-1,2-dihydro-1,6-naphthyridin-3-yl)-2-fluorophenyl)-3-phenylurea] | 10 to 100 | 100 to 1000 | > 1000 |  |  |  |
| CCn1c(=O)c(-c2cc(NC(=O)Nc3ccccc3)c(F)cc2Cl)cc2cnc(NC3CCOCC3)cc21 [Example 42, 1-(4-chloro-5-(1-ethyl-2-oxo-7-(tetrahydro-2H-pyran-4-ylamino)-1,2-dihydro-1,6-naphthyridin-3-yl)-2-fluorophenyl)-3-phenylurea] | 10 to 100 | 10 to 100 | 100 to 1000 |  |  |  |
| CCn1c(=O)c(-c2cc(NC(=O)Nc3ccccc3)c(F)cc2Br)cc2cnc(NCCS(C)(=O)=O)cc21 [Example 52, 1-(4-bromo-5-(1-ethyl-7-(2-(methylsulfonyl)ethylamino)-2-oxo-1,2-dihydro-1,6-naphthyridin-3-yl)-2-fluorophenyl)-3-phenylurea] | < 10 |  |  | 100 to 1000 |  |  |
| CCn1c(=O)c(-c2cc(NC(=O)Nc3ccccc3)c(F)cc2Cl)cc2cnc(NC3CCOC3)cc21 (stereo not drawn) [Example 47, 1-(4-chloro-5-(1-ethyl-2-oxo-7-(THF-3-ylamino)-1,2-dihydro-1,6-naphthyridin-3-yl)-2-fluorophenyl)-3-phenylurea] | < 10 | 10 to 100 | > 1000 |  |  |  |

Other lines, results leading:

| IC50 [1] [nM] | IC50 [2] [nM] | IC50 [3] [nM] | IC50 [4] [nM] | IC50 [5] [nM] | IC50 [6] [nM] | SMILES |
| --- | --- | --- | --- | --- | --- | --- |
| < 10 | > 1000 | 10 to 100 | 10 to 100 |  |  | CCn1c(=O)c(-c2cc(NC(=O)Nc3ccc(F)c(CN4CCCC4)c3)c(F)cc2Cl)cc2cnc(NC)cc21 [Example 97, 1-(4-chloro-5-(1-ethyl-7-(methylamino)-2-oxo-1,2-dihydro-1,6-naphthyridin-3-yl)-2-fluorophenyl)-3-(4-fluoro-3-(pyrrolidin-1-ylmethyl)phenyl)urea] |
| < 10 | 10 to 100 | 10 to 100 |  | 10 to 100 | 100 to 1000 | CCn1c(=O)c(-c2cc(NC(=O)Nc3ccccc3)c(F)cc2F)cc2cnc(NC(C)=O)cc21 [Example 66, 1-(5-(7-acetamido-1-ethyl-2-oxo-1,2-dihydro-1,6-naphthyridin-3-yl)-2,4-difluorophenyl)-3-phenylurea] |
| < 10 | 100 to 1000 | 10 to 100 | 100 to 1000 |  |  | CCn1c(=O)c(-c2cc(NC(=O)Nc3ccccc3)c(F)cc2F)cc2cnc(NC(=O)CC#N)cc21 [Example 75, 2-cyano-N-(3-(2,4-difluoro-5-(3-phenylureido)phenyl)-1-ethyl-2-oxo-1,2-dihydro-1,6-naphthyridin-7-yl)acetamide] |
| 10 to 100 | > 1000 | 10 to 100 |  |  |  | CCn1c(=O)c(-c2cc(NC(=O)Nc3ccc(F)c(CN4CCOCC4)c3)c(F)cc2Cl)cc2cnc(NC=O)cc21 [Example 107, N-(3-(2-chloro-4-fluoro-5-(3-(4-fluoro-3-(morpholinomethyl)phenyl)ureido)phenyl)-1-ethyl-2-oxo-1,2-dihydro-1,6-naphthyridin-7-yl)formamide] |
| 10 to 100 | 10 to 100 | 100 to 1000 |  |  |  | CCn1c(=O)c(-c2cc(NC(=O)Nc3ccccc3)c(F)cc2Cl)cc2cnc(NC(=O)[C@@H]3CCCN3)cc21 [Example 85, (S)—N-(3-(2-chloro-4-fluoro-5-(3-phenylureido)phenyl)-1-ethyl-2-oxo-1,2-dihydro-1,6-naphthyridin-7-yl)pyrrolidine-2-carboxamide] |
| < 10 | > 1000 | 10 to 100 |  |  |  | CCn1c(=O)c(-c2cc(NC(=O)Nc3ccc(F)c(CN(C)C)c3)c(F)cc2Cl)cc2cnc(NC)cc21 [Example 94, 1-(4-chloro-5-(1-ethyl-7-(methylamino)-2-oxo-1,2-dihydro-1,6-naphthyridin-3-yl)-2-fluorophenyl)-3-(3-((dimethylamino)methyl)-4-fluorophenyl)urea] |
